Reference: patent US9718828B2 (MERCK SHARP & DOHME CORP., priority 2011, dated 2017)
Counter-ions that a name gives are not always drawn. Like-named read-outs stand apart in the source and are kept apart here.

Biological target: Btk enzyme (His-Btk) (Homo sapiens (Human), UniProt Q06187)
Test: Btk enzyme activity, IMAP fluorescence polarization assay (Assay Method A)
[1] = read-out: EC50 Btk activity values - Assay Method A, IMAP-FP, 60 min pre-incubation, 5 μM ATP, class 100-1000 is given as ≧100 nM-<1 μM

Chain of Btk enzyme (His-Btk) (Q06187 whole entry): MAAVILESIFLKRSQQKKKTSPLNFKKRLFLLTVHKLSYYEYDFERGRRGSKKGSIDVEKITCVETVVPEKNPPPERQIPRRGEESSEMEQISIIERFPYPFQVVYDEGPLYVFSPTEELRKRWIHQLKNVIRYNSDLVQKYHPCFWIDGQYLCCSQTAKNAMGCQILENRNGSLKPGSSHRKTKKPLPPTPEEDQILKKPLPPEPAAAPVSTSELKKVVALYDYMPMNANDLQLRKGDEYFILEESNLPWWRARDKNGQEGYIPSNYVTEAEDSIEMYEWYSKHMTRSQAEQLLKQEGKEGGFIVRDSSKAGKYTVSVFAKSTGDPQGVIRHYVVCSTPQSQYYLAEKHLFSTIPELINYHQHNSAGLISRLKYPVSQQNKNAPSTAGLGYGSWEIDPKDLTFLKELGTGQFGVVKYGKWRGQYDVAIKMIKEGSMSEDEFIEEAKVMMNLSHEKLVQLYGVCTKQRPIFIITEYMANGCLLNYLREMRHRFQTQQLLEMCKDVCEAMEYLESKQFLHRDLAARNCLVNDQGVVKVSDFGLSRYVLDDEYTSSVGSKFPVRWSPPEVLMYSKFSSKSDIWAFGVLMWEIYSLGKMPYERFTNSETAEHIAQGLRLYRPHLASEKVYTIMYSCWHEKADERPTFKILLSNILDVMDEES

Row | Structure (SMILES) | EC50 [1] [nM] | EC50 [nM] | also measured
1 | CC1(C(=O)N2CCC[C@@H](c3nc(-c4ccc(C(=O)Nc5cc(C(F)(F)F)ccn5)cc4)c4c(N)ncc(CCc5ccccc5)n34)C2)COC1 [Example 319, (R)-4-(8-amino-3-(1-(3-methyloxetane-3-carbonyl)piperidin-3-yl)-5-phenethylimidazo[1,5-a]pyrazin-1-yl)-N-(4-(trifluoromethyl)pyridin-2-yl)benzamide] | < 10 |  | 
2 | C[C@H]1CC[C@@H](c2nc(-c3ccc(C(=O)Nc4cc(C(F)(F)F)ccn4)cc3)c3c(N)nccn23)CN1C(=O)C1CC1 (relative stereo) [Example 202, 4-(8-amino-3-((cis)-1-(cyclopropanecarbonyl)-6-methylpiperidin-3-yl)imidazo[1,5-a]pyrazin-1-yl)-N-(4-(trifluoromethyl)pyridin-2-yl)benzamide, TFA salt] | < 10 |  | 
3 | CCNC(=O)N1CCC[C@@H](c2nc(-c3ccc(C(=O)Nc4ccccn4)cc3)c3c(N)nccn23)C1 [Example 48, (R)-3-(8-amino-1-(4-(pyridin-2-ylcarbamoyl)phenyl)imidazo[1,5-a]pyrazin-3-yl)-N-ethylpiperidine-1-carboxamide] | < 10 |  | 
4 | CCc1cnc(NC(=O)c2ccc(-c3nc([C@H]4CC[C@@H](OC)CC4)n4ccnc(N)c34)cc2)s1 [Example 39, 4-(8-amino-3-((cis)-4-methoxycyclohexyl)imidazo [1,5-a]pyrazin-1-yl)-N-(5-ethylthiazol-2-yl)benzamide] |  | 10 to 100 | 
5 | C=Cc1cnc(N)c2c(-c3ccc(C(=O)Nc4cc(C(F)(F)F)ccn4)cc3)nc([C@@H]3CCCN(C(=O)C4(C)COC4)C3)n12 [Example 302, (R)-4-(8-amino-3-(1-(3-methyloxetane-3-carbonyl)piperidin-3-yl)-5-vinylimidazo[1,5-a]pyrazin-1-yl)-N-(4-(trifluoromethyl)pyridin-2-yl)benzamide] | < 10 |  | 
6 | CCCc1ccnc(NC(=O)c2ccc(-c3nc(C)n4c(C(=O)NCCCOC)cnc(N)c34)cc2)c1 [Example 294, 8-amino-N-(3-methoxypropyl)-3-methyl-1-(4-(4-propylpyridin-2-ylcarbamoyl)phenyl)imidazo[1,5-a]pyrazine-5-carboxamide] |  | 100 to 1000 | 
7 | CCOC(=O)c1cnc(N)c2c(-c3ccc(C(=O)Nc4cc(C(F)(F)F)ccn4)cc3)nc([C@@H]3CCCN(C(=O)C4(C)COC4)C3)n12 [Example 299, (R)-ethyl 8-amino-3-(1-(3-methyloxetane-3-carbonyl)piperidin-3-yl)-1-(4-(4-(trifluoromethyl)pyridine-2-ylcarbamoyl)phenyl)imidazo[1,5-a]pyrazine-5-carboxylate] |  | < 10 | 
8 | CC(C)C(=O)N1CCC(c2nc(-c3ccc(C(=O)Nc4ccccn4)cc3)c3c(N)nccn23)CC1 [Example 129, 4-(8-amino-3-(1-isobutyrylpiperidin-4-yl)imidazo[1,5-a]pyrazin-1-yl)-N-(pyridin-2-yl)benzamide] |  | 100 to 1000 | 
9 | CC1CC1C(=O)N1CCC[C@@H](c2nc(-c3ccc(C(=O)Nc4cc(C5CC5)ccn4)cc3)c3c(N)nccn23)C1 (stereo partly drawn) [Example 62, 4-(8-amino-3-((3R)-1-(2-methylcyclopropanecarbonyl)piperidin-3-yl)imidazo[1,5-a]pyrazin-1-yl)-N-(4-cyclopropylpyridin-2-yl)benzamide] |  | < 10 | 
10 | CCOCCC(=O)N1C[C@H](c2nc(-c3ccc(C(=O)Nc4cc(C(F)(F)F)ccn4)cc3)c3c(N)nccn23)CC[C@@H]1C (relative stereo) [Example 189, 4-(8-amino-3-((cis)-1-(3-ethoxypropanoyl)-6-methylpiperidin-3-yl)imidazo[1,5-a]pyrazin-1-yl)-N-(4-(trifluoromethyl)pyridin-2-yl)benzamide, TFA salt] | < 10 |  | 
11 | Nc1nccn2c([C@@H]3CCCN(C(=O)C4(O)CCC4)C3)nc(-c3ccc(C(=O)Nc4cc(C(F)(F)F)ccn4)cc3)c12 [Example 81, (R)-4-(8-amino-3-(1-(1-hydroxycyclobutanecarbonyl)piperidin-3-yl)imidazo[1,5-a]pyrazin-1-yl)-N-(4-(trifluoromethyl)pyridin-2-yl)benzamide] |  | < 10 | 
12 | C[C@H]1CC[C@@H](c2nc(-c3ccc(C(=O)Nc4ccccn4)cc3)c3c(N)nccn23)CN1C(=O)C1CCC1 (relative stereo) [Example 204, 4-(8-amino-3-((cis)-1-(cyclobutanecarbonyl)-6-methylpiperidin-3-yl)imidazo[1,5-a]pyrazin-1-yl)-N-(pyridin-2-yl)benzamide, TFA salt] | < 10 |  | 
13 | Nc1nccn2c([C@@H]3CCCN(C(=O)OCc4ccccc4)C3)nc(-c3ccc(C(=O)Nc4cc(C(F)(F)F)ccn4)cc3)c12 [Example 107, (R)-benzyl 3-(8-amino-1-(4-(4-(trifluoromethyl)pyridin-2-ylcarbamoyl)phenyl)imidazo[1,5-a]pyrazin-3-yl)piperidine-1-carboxylate] |  |  | EC50 (read-out: EC50 Btk activity values - Assay Method A): < 10 nM
14 | Nc1nccn2c([C@@H]3CCC[C@H](NC(=O)C4CC4)C3)nc(-c3ccc(C(=O)Nc4cc(C(F)(F)F)ccn4)cc3)c12 (relative stereo) [Example 156, 4-(8-amino-3-((cis)-3-(cyclopropanecarboxamido)cyclohexyl)imidazo[1,5-a]pyrazin-1-yl)-N-(4-(trifluoromethyl)pyridin-2-yl)benzamide] | < 10 |  | 
15 | Nc1nccn2c(N3CCC[C@H](NC(=O)C4CC4)C3)nc(-c3ccc(C(=O)Nc4cc(C(F)(F)F)ccn4)cc3)c12 [Example 222, (S)-4-(8-amino-3-(3-(cyclopropanecarboxamido)piperidin-1-yl)imidazo[1,5-a]pyrazin-1-yl)-N-(4-(trifluoromethyl)pyridin-2-yl)benzamide] | < 10 |  | 
16 | Nc1nccn2c(N3CCCC(C(=O)N4CCCC(F)(F)C4)C3)nc(-c3ccc(C(=O)Nc4cc(C(F)(F)F)ccn4)cc3)c12 (stereo not shown) [Example 243, 4-(8-amino-3-(3-(3,3-difluoropiperidine-1-carbonyl)piperidin-1-yl)imidazo[1,5-a]pyrazin-1-yl)-N-(4-(trifluoromethyl)pyridin-2-yl)benzamide, TFA salt] | < 10 |  | 
17 | CCc1cnc(NC(=O)c2ccc(-c3nc([C@H]4CC[C@H](O)CC4)n4ccnc(N)c34)cc2)s1 [Example 4, 4-(8-amino-3-((trans)-4-hydroxycyclohexyl)imidazo[1,5-a]pyrazin-1-yl)-N-(5-ethylthiazol-2-yl)benzamide] | < 10 |  | 
18 | N#Cc1ccnc(NC(=O)c2ccc(-c3nc(C4CCOCC4)n4ccnc(N)c34)cc2)c1 [Example 26, 4-(8-amino-3-(tetrahydro-2H-pyran-4-yl)imidazo [1,5-a]pyrazin-1-yl)-N-(4-cyanopyridin-2-yl)benzamide] |  | 10 to 100 | 
19 | CC(C)C(=O)N1CCC[C@@H](c2nc(-c3ccc(C(=O)Nc4cc(C#N)ccn4)cc3)c3c(N)nccn23)C1 [Example 100, (R)-4-(8-amino-3-(1-isobutyrylpiperidin-3 yl)imidazo[1,5-a]pyrazin-1-yl)-N-(4-cyanopyridin-2-yl)benzamide] | < 10 |  | 
20 | Nc1nccn2c([C@@H]3CCCN(C(=O)C4CCC4)C3)nc(-c3ccc(C(=O)Nc4cc(C5CC5)ccn4)cc3)c12 [Example 59, (R)-4-(8-amino-3-(1-(cyclobutanecarbonyl)piperidin-3-yl)imidazo[1,5-a]pyrazin-1-yl)-N-(4-cyclopropylpyridin-2-yl)benzamide] |  | < 10 | 
21 | Nc1nccn2c([C@@H]3CCCN(C(=O)C4CC(F)(F)C4)C3)nc(-c3ccc(C(=O)Nc4cc(C5CC5)ccn4)cc3)c12 [Example 109, (R)-4-(8-amino-3-(1-(3,3-difluorocyclobutanecarbonyl)piperidin-3-yl)imidazo[1,5-a]pyrazin-1-yl)-N-(4-cyclopropylpyridin-2-yl)benzamide] | < 10 |  | 
22 | CC1CCc2nc(NC(=O)c3ccc(-c4nc([C@H]5CC[C@H](O)CC5)n5ccnc(N)c45)cc3)sc2C1 (stereo partly drawn) [Example 14, 4-(8-amino-3-((trans)-4-hydroxycyclohexyl)imidazo[1,5-a]pyrazin-1-yl)-N-(6-methyl-4,5,6,7-tetrahydrobenzo[d]thiazol-2-yl)benzamide] | < 10 |  | 
23 | Nc1nccn2c([C@@H]3CCCN(C(=O)C(=O)c4ccco4)C3)nc(-c3ccc(C(=O)Nc4cc(C5CC5)ccn4)cc3)c12 [Example 123, (R)-4-(8-amino-3-(1-(2-(furan-2-yl)-2-oxoacetyl)piperidin-3-yl)imidazo[1,5-a]pyrazin-1-yl)-N-(4-cyclopropylpyridin-2-yl)benzamide] |  | 10 to 100 | 
24 | CC(C)(F)C(=O)N1CCOC(c2nc(-c3ccc(C(=O)Nc4cc(C(F)(F)F)ccn4)cc3)c3c(N)nccn23)C1 (stereo not shown) [Example 174, 4-(8-amino-3-(4-(2-fluoro-2-methylpropanoyl)morpholin-2-yl)imidazo[1,5-a]pyrazin-1-yl)-N-(4-(trifluoromethyl)pyridin-2-yl)benzamide] | < 10 |  | 
25 | Nc1nccn2c(C3CCCC3)nc(-c3ccc(C(=O)Nc4ccccn4)cc3)c12 [Example 45, 4-(8-amino-3-cyclopentylimidazo[1,5-a]pyrazin-1-yl)-N-(pyridin-2-yl)benzamide, TFA salt] | < 10 |  | 
26 | CC1(C(=O)N2C[C@@H](O)C[C@@H](c3nc(-c4ccc(C(=O)Nc5cc(C(F)(F)F)ccn5)cc4)c4c(N)nccn34)C2)COC1 (relative stereo) [Example 179, 4-(8-amino-3-((cis)-5-hydroxy-1-(3-methyloxetane-3-carbonyl)piperidin-3-yl)imidazo[1,5-a]pyrazin-1-yl)-N-(4-(trifluoromethyl)pyridin-2-yl)benzamide] |  | 10 to 100 | 
27 | Nc1nccn2c([C@@H]3CCCN(CC4CCOC4)C3)nc(-c3ccc(C(=O)Nc4cc(C(F)(F)F)ccn4)cc3)c12 (stereo partly drawn) [Example 142, 4-(8-amino-3-((3R)-1-((tetrahydrofuran-3-yl)methyl)piperidin-3-yl)imidazo[1,5-a]pyrazin-1-yl)-N-(4-(trifluoromethyl)pyridin-2-yl)benzamide, TFA salt] | < 10 |  | 
28 | CC1(C)CC(c2nc(-c3ccc(C(=O)Nc4cc(C#N)ccn4)cc3)c3c(N)nccn23)CCO1 (stereo not shown) [Example 37, 4-(8-amino-3-(2,2-dimethyltetrahydro-2H-pyran-4-yl)imidazo[1,5-a]pyrazin-1-yl)-N-(4-cyanopyridin-2-yl)benzamide] |  | 10 to 100 | 
